Target: T1, IDO-1 (Homo sapiens, UniProt P14902)
T1 construct: expressed in transfected cells; host or cells: HEK293 (hIDO1-HEK293 recombinant cells)
Assay: IDO-1 activity by kynurenine levels in hIDO1-HEK293 recombinant cells
Assay type: cell-based
Settings: 10 uM, 24 hours
Experimental: IDO-1 activity was measured indirectly using kynurenine levels using the following protocols. Briefly, hIDO1-HEK293 recombinant cells were plated overnight. The following day the cells were left untreated or treated with 10 uM of ID3, ID3-SA or LNP-ID3-SA for twenty-four (24) hours. The IDO-1 activity was measured by indirect measurement of kynurenine levels by analyzing absorption at 480 nm using IDO1 Cellular Activity QuickDetect™ kit (PBSBioscience, San Diego, CA).

T1 sequence (P14902 whole entry): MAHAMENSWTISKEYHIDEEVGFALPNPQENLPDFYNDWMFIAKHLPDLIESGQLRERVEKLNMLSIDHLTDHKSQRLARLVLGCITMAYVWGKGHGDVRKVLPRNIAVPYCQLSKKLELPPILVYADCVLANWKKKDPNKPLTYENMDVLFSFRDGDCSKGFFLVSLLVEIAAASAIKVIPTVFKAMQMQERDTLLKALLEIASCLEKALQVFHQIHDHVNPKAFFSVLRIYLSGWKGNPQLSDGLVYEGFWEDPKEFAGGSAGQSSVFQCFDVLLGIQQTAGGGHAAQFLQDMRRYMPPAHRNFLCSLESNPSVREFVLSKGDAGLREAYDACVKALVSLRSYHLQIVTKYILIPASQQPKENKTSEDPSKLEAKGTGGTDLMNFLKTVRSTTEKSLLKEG

IDO-1 activity (kynurenine levels, absorption at 480 nm): inhibited IDO-1 activity
SMILES: CCCCCCCCCCCCCCCCCC(=O)OCOC(=O)N(C(=O)[C@H](C)[C@H]1CC[C@@H](c2ccnc3ccc(F)cc32)CC1)c1ccc(Cl)cc1 [ID3-SA]

— US12286403B2, “Formulated and/or co-formulated liposome compositions containing IDO antagonist prodrugs useful in the treatment of cancer and methods thereof” (Nammi Therapeutics, Inc., priority 2019, dated 2025)
